Data taken from patent US11358960B2, “Pyrazol-3-ones that activate pro-apoptotic BAX” (Dana-Farber Cancer Institute, Inc., priority 2011, dated 2022).

Columns and labels:
[1] = system: BCL-XL-dependent leukemia cell line; test: Caspase 3/7 and cell death in BCL-XL-dependent leukemia cell line; assay type: cell-based
[2] = system: MCL-1 dependent leukemia cell line; test: Caspase 3/7 and cell death in isogenic MCL-1 dependent leukemia cell line; assay type: cell-based
[3] = system: DHL5 diffuse large B-cell lymphoma (DLBCL) cells; test: DHL5 cell viability assay (CellTiter-Glo); assay type: cell-based; conditions: for cell viability: single agent, 24 hours
[4] = target: T1, recombinant full-length BAX (Homo sapiens, UniProt Q07812); test: Competitive fluorescence polarization assay: displacement of FITC-BIM SAHB from BAX; assay type: binding; conditions: positive control
T1 construct: Recombinant and tagless full-length BAX; made in house; host or cells: Escherichia coli BL21 (DE3)
T1 sequence (Q07812 whole entry): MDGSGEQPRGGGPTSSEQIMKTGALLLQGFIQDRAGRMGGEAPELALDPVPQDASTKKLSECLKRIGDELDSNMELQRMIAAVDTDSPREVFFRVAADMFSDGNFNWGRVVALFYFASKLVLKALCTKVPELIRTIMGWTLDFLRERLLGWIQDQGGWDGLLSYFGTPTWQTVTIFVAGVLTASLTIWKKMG
Protocol: BCL-2 family protein production. Recombinant and tagless full-length BAX, BCL-XLΔC, MCL-1ΔNΔC, and BFL-1/A1ΔC were expressed and purified as previously reported^17,35. Transformed Escherichia coli BL21 (DE3) were cultured in ampicillin-containing Luria Broth and protein expression was induced with 0.5 mM isopropyl β-D-1-thiogalactopyranoside (IPTG). The bacterial pellets were resuspended in buffer (250 mM NaCl, 20 mM Tris, complete protease inhibitor tablet, pH 7.2), sonicated, and after centrifugation at 45,000×g for 45 min, the supernatants were applied to glutathione-agarose columns (Sigma) for GST-BCL-XLΔC, MCL-1ΔNΔC, and BFL-1/A1ΔC, or a chitin column (BioLabs) for Intein-BAX. On-bead digestion of GST-tagged protein was accomplished by overnight incubation at room temperature in the presence of thrombin (75 units) in PBS (3 mL), whereas the intein tag was cleaved from BAX by overnight incubation of the chitin beads at 4° C. with 50 mM DTT. BCL-XLΔC, MCL-1ΔNΔC, and BFL-1/A1ΔC were purified by size exclusion chromatography (SEC) using 150 mM NaCl, 50 mM Tris, pH 7.4 buffer conditions, and full-length monomeric BAX protein isolated by SEC using a Superdex-75 column (GE Healthcare) and 20 mM Hepes pH 7.2, 150 mM KCl buffer conditions.
(§1) Fluorescence polarization binding assays. Fluorescence polarization assays (FPA) were performed as previously described^35,36.

[5] = target: T2, BFL-1/A1 (Homo sapiens, UniProt Q16548); test: Competitive FPA with FITC-BIM SAHB and BFL-1/A1; assay type: binding
T2 construct: serial dilutions of full-length BAX, BCL-XLΔC, MCL-1ΔNΔC, or BFL-1/A1ΔC; GST (N, cleaved yes); made in house; host or cells: Escherichia coli BL21 (DE3)
T2 sequence (Q16548 1-151 limits assumed): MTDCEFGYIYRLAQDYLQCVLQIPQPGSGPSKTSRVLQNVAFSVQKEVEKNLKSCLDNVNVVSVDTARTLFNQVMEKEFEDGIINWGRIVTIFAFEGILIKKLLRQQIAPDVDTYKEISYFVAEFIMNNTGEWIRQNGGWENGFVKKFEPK
Source text: (§2) The BH3 binding pocket of anti-apoptotic targets shares topographic similarities with the BH3 trigger site on BAX, including a hydrophobic groove that engages the hydrophobic face of BH3 helices and a perimeter of similarly oriented charged and polar residues that are complementary to discrete residues of the hydrophilic BH3 interface. The two BH3 binding sites differ in their geographic location, pocket depth, and functionality.
(§3) BCL-2 family protein production. Recombinant and tagless full-length BAX, BCL-XLΔC, MCL-1ΔNΔC, and BFL-1/A1ΔC were expressed and purified as previously reported^17,35. Transformed Escherichia coli BL21 (DE3) were cultured in ampicillin-containing Luria Broth and protein expression was induced with 0.5 mM isopropyl β-D-1-thiogalactopyranoside (IPTG). The bacterial pellets were resuspended in buffer (250 mM NaCl, 20 mM Tris, complete protease inhibitor tablet, pH 7.2), sonicated, and after centrifugation at 45,000×g for 45 min, the supernatants were applied to glutathione-agarose columns (Sigma) for GST-BCL-XLΔC, MCL-1ΔNΔC, and BFL-1/A1ΔC, or a chitin column (BioLabs) for Intein-BAX. […]
as §1

[6] = target: T3, BCL-XL (Homo sapiens, UniProt Q07817); test: Competitive FPA with FITC-BIM SAHB and BCL-XL; assay type: binding
T3 construct: serial dilutions of full-length BAX, BCL-XLΔC, MCL-1ΔNΔC, or BFL-1/A1ΔC; GST (N, cleaved yes); made in house; host or cells: Escherichia coli BL21 (DE3)
T3 sequence (Q07817 1-212 limits assumed, species assumed): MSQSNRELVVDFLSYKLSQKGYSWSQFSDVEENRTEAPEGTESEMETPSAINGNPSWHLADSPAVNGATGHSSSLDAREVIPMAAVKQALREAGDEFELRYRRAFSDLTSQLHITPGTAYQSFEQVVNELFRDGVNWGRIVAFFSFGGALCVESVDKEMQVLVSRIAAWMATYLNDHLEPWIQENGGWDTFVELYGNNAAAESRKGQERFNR
Source text: as §2, §3, §1

[7] = target: T4, MCL-1 (Homo sapiens, UniProt Q07820); test: Competitive FPA with FITC-BIM SAHB and MCL-1; assay type: binding
T4 construct: serial dilutions of full-length BAX, BCL-XLΔC, MCL-1ΔNΔC, or BFL-1/A1ΔC; GST (N, cleaved yes); made in house; host or cells: Escherichia coli BL21 (DE3)
T4 sequence (Q07820 170-327 limits assumed, species assumed): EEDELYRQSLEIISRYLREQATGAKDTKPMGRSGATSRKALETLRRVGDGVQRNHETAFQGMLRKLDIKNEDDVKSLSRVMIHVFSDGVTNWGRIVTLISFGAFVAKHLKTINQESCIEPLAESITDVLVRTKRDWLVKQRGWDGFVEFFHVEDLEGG
Source text: as §2, §3, §1

[8] = system: Bak−/− MEFs; test: Light microscopy (live cell imaging) of Bak-/- MEFs; assay type: cell-based, mouse; conditions: BAM7 15 μM, time lapse
Protocol: Light microscopy. MEFs (5,000 cells/well) were plated for 24 hours on glass bottom culture dishes (MatTek Corp., MA) and then incubated with BAM7 (15 μM) or vehicle (0.15% DMSO). Live cell imaging was performed using a TE2000-E2 Nikon microscopy equipped with a temperature and CO2-controlled chamber that maintained an atmosphere of 3-5% humidified CO2 at 37° C. A Hamamatsu Orca ER digital CCD camera was used to capture images at 20× magnification for 24 hours at 20 min intervals. Acquisition, hardware control, and image analysis was performed using Nikon NIS-Elements software.

[9] = system: leukemia cells; test: Leukemia cell viability (anti-leukemic activity); assay type: cell-based; conditions: FIGS. 15-17
[10] = system: Bax−/−Bak−/− MEFs; test: Cell viability assay in Bax-/-Bak-/- MEFs (CellTiter-Glo); assay type: cell-based, mouse; conditions: 24 hours
[11] = system: Bak−/− MEFs; test: Cell viability assay in Bak-/- MEFs (CellTiter-Glo); assay type: cell-based, mouse; conditions: Bak−/− MEFs (express only BAX), 24 hours

Row | SMILES | cell death [1] | cell death [2] | cell viability [3] | effect of added ABT-737 on the response to BAM7 ([3]; subcytotoxic dose of ABT-737 added to BAM7) | IC50 [4] [nM] | IC50 ([5]; competitive FPA, read-out: IC50, competition with FITC-BIM SAHB for binding to BFL-1/A1) [nM] | IC50 ([6]; competitive FPA, read-out: IC50, competition with FITC-BIM SAHB for binding to BCL-XL) [nM] | IC50 ([7]; competitive FPA, read-out: IC50, competition with FITC-BIM SAHB for binding to MCL-1) [nM] | competition with FITC-BIM SAHB for BFL-1/A1 (in words) ([5]; up to 50 μM dosing) | morphologic features of apoptosis [8] | anti-leukemic activity [9] | competition with FITC-BIM SAHB for BCL-XL (in words) ([6]; up to 50 μM dosing) | competition with FITC-BIM SAHB for MCL-1 (in words) ([7]; up to 50 μM dosing) | cell viability [10] | cell viability [11] | effect of BAM7 on the response to ABT-737 ([3]; BAM7 10 μM plus ABT-737)
1 | CN(C)CC[C@H](CSc1ccccc1)Nc1ccc(S(=O)(=O)NC(=O)c2ccc(N3CCN(Cc4ccccc4-c4ccc(Cl)cc4)CC3)cc2)cc1[N+](=O)[O-] [ABT-737, reference compound] | induces cell death | significant resistance | relatively resistant | further sensitized the cells to BAM7 |  |  |  |  |  |  |  |  |  |  |  | 
2 | CC[C@H](C)[C@H](NC(C)=O)C(=O)N[C@@H](Cc1c[nH]c2ccccc12)C(=O)N[C@H](C(=O)N[C@@H](C)C(=O)N[C@@H](CCC(N)=O)C(=O)N[C@@H](CCC(=O)O)C(=O)N[C@@H](CC(C)C)C(=O)N[C@@H](CCCNC(=N)N)C(=O)N[C@@]1(C)CCCC=CCCC[C@@](C)(C(=O)N[C@@H](Cc2ccccc2)C(=O)N[C@@H](CC(N)=O)C(=O)N[C@@H](C)C(=O)N[C@@H](Cc2ccc(O)cc2)C(=O)N[C@@H](Cc2ccc(O)cc2)C(=O)N[C@@H](C)C(=O)N[C@@H](CCCNC(=N)N)C(=O)N[C@@H](CCCNC(=N)N)C(N)=O)NC(=O)[C@H](CC(=O)O)NC(=O)CNC(=O)[C@H]([C@@H](C)CC)NC1=O)[C@@H](C)CC [Ac-BIM SAHB, reference compound] |  |  |  |  | 314 | 603 | 572 | 136 |  |  |  |  |  |  |  | 
3 | CCOc1ccccc1NN=C1C(=O)N(c2nc(-c3ccccc3)cs2)N=C1C [BAM7, 4-(2-(2-ethoxyphenyl)hydrazono)-3-methyl-1-(4-phenylthiazol-2-yl)-1H-pyrazol-5(4H)-one] |  |  | dose-responsive impairment of cell viability |  |  |  |  |  | little to no anti-apoptotic binding interactions | characteristic microscopic features of apoptosis | anti-leukemic activity | little to no anti-apoptotic binding interactions | little to no anti-apoptotic binding interactions | did not affect the viability | dose-responsively impaired the viability | sensitized DHL5 cells to ABT-737
